In US11778995B2, “Genetically modified non-human animals and methods of use thereof” (Regeneron Pharmaceuticals, Inc., priority 2012, dated 2023):

Tested on: INA-6 cells
Test: μCT analysis of murine femurs after treatment of INA-6-engrafted mice with anti-myeloma drugs
Type: in vivo, mouse
Details: Rag2−/−Il2rgnullIl6h/hhSIRPa+ mice engrafted with 5×10^5 intrafemorally injected INA-6 cells, treated biweekly, femurs analyzed after four weeks, compared to untreated mice
Description: FIG. 7 is a graph depicting the results of μCT analysis of murine femurs after treatment with anti-myeloma drugs. Rag2^−/−Il2rg^nullIl6^h/hhSIRPa+ were engrafted with 5×10^5 intrafemorally injected INA-6 cells and treated biweekly with Velcade® or Zometa®, respectively. After four weeks, mice were sacrificed and femurs were fixed in 70% ethanol for μCT analysis. Trabecular bone and tissue volumes were quantified to calculate the ratio between bone to tissue volume.
Transplantation of cells. For intrafemoral transplantation of INA6 cells, Rag2^−/−Il2rg^null Il6^h/hhSIRPa^+ mice were irradiated twice with 200 rad from an X-ray source.
Indicated amounts of cells were then transplanted into the femur of recipient mice. Briefly, mice were anaesthetized using Ketamine/Xylazine and a hole was drilled into the patellar surface of the femur using a 26 gauge needle. The cells were then slowly injected in a volume of 20 μl using a 27 gauge needle. […]
μCT. Femur morphometry was quantified using cone-beam microfocus x-ray computed tomography (μCT40; ScancoMedicalAG). […]
Therefore, it was next examined whether transplantation of the tumor cell line in its natural microenvironment is able to reproduce the pathology typically associated with human MM. […] Specifically, the loss of trabecular bone mass was observed by histology, which was quantified by μCT. […]

O=P(O)(O)C(O)(Cn1ccnc1)P(=O)(O)O [Zometa]
bone resorption as quantified by μCT (ratio between bone to tissue volume): able to reduce bone resorption
